Assay results: PubChem BioAssay AID212 (DTP/NCI, 2004)
Where “and” joins values, the source holds several entries; their conditions need not be identical. Identical values can stand only once. Records with an inconclusive call do not appear.

System: BDF1 mice, colon carcinoma 38 sc, T/C %
Experiment: NCI In Vivo Anticancer Drug Screen. Data for tumor model Colon Carcinoma 38 (subcutaneous) in B6D2F1 (BDF1) mice
Procedure, shortened: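 T/C readout: treated group (T) measurement over vehicle control group (C) measurement. Endpoint is survival or tumor size in mice bearing a transplanted tumor.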

[1] = endpoint: median tumor weight (est.), dose: 12.5 mg/kg/injection, schedule: Q07DX002 (ip), vehicle: saline with Tween-80, higher = larger tumour
[2] = endpoint: median tumor weight (est.), dose: 25.0 mg/kg/injection, schedule: Q07DX002 (ip), vehicle: saline with Tween-80, higher = larger tumour
[3] = endpoint: median tumor weight (est.), dose: 100.0 mg/kg/injection, schedule: Q07DX002 (ip), vehicle: saline with Tween-80, higher = larger tumour

SMILES: O=C1NC(=O)/C(=C/C=C/c2ccccc2)S1
- T/C (endpoint: median tumor weight (est.), dose: 1.81 mg/kg/injection, schedule: Q07DX002 (ip), vehicle: saline with Tween-80, higher = larger tumour): 70 % of control
- T/C (endpoint: median tumor weight (est.), dose: 3.62 mg/kg/injection, schedule: Q07DX002 (ip), vehicle: saline with Tween-80, higher = larger tumour): 198 % of control
- T/C (endpoint: median tumor weight (est.), dose: 7.25 mg/kg/injection, schedule: Q07DX002 (ip), vehicle: saline with Tween-80, higher = larger tumour): 84 % of control
- T/C [1]: 117 % of control and 100 % of control
- T/C (endpoint: median tumor weight (est.), dose: 14.5 mg/kg/injection, schedule: Q07DX002 (ip), vehicle: saline with Tween-80, higher = larger tumour): 85 % of control
- T/C [2]: 65 % of control and 80 % of control
- T/C (endpoint: median tumor weight (est.), dose: 29.0 mg/kg/injection, schedule: Q07DX002 (ip), vehicle: saline with Tween-80, higher = larger tumour): 69 % of control
- T/C (endpoint: median tumor weight (est.), dose: 58.0 mg/kg/injection, schedule: Q07DX002 (ip), vehicle: saline with Tween-80, higher = larger tumour): 78 % of control
- T/C [3]: 175 % of control

SMILES: ClCC[Se](Cl)(Cl)c1ccccc1
- T/C (endpoint: median tumor weight (est.), dose: 1.56 mg/kg/injection, schedule: Q07DX002 (ip), vehicle: saline, higher = larger tumour): 84 % of control
- T/C (endpoint: median tumor weight (est.), dose: 1.56 mg/kg/injection, schedule: Q07DX002 (ip), vehicle: suspension in saline, higher = larger tumour): 83 % of control
- T/C (endpoint: median tumor weight (est.), dose: 3.12 mg/kg/injection, schedule: Q07DX002 (ip), vehicle: saline, higher = larger tumour): 96 % of control
- T/C (endpoint: median tumor weight (est.), dose: 6.25 mg/kg/injection, schedule: Q07DX002 (ip), vehicle: saline, higher = larger tumour): 105 % of control
- T/C (endpoint: median tumor weight (est.), dose: 6.25 mg/kg/injection, schedule: Q07DX002 (ip), vehicle: suspension in saline, higher = larger tumour): 88 % of control
- T/C (endpoint: median tumor weight (est.), dose: 12.5 mg/kg/injection, schedule: Q07DX002 (ip), vehicle: saline, higher = larger tumour): 90 % of control

SMILES: CCCCCCCC(=O)N/N=C(\CO)[C@]1(O)Cc2c(O)c3c(c(O)c2[C@@H](OC2CC(N)C(O)C(C)O2)C1)C(=O)c1c(OC)cccc1C3=O (some centres not stated)
- T/C (endpoint: median survival time, dose: 30.0 mg/kg/injection, schedule: Q07DX002 (sc), vehicle: saline, higher = longer survival): 100 % of control
- T/C (endpoint: median survival time, dose: 48.0 mg/kg/injection, schedule: Q07DX002 (sc), vehicle: saline, higher = longer survival): 75 % of control
- T/C (endpoint: median survival time, dose: 126.0 mg/kg/injection, schedule: Q07DX002 (sc), vehicle: saline, higher = longer survival): 105 % of control
- T/C (endpoint: median tumor weight (est.), dose: 6.75 mg/kg/injection, schedule: Q07DX002 (ip), vehicle: distilled water + Tween-80, higher = larger tumour): 84 % of control
- T/C (endpoint: median tumor weight (est.), dose: 6.75 mg/kg/injection, schedule: Q07DX002 (ip), vehicle: suspension in saline, higher = larger tumour): 97 % of control
- T/C (endpoint: median tumor weight (est.), dose: 13.5 mg/kg/injection, schedule: Q07DX002 (ip), vehicle: suspension in saline, higher = larger tumour): 73 % of control
- T/C (endpoint: median tumor weight (est.), dose: 27.0 mg/kg/injection, schedule: Q07DX002 (ip), vehicle: suspension in saline, higher = larger tumour): 101 % of control
- T/C (endpoint: median tumor weight (est.), dose: 54.0 mg/kg/injection, schedule: Q07DX002 (ip), vehicle: distilled water + Tween-80, higher = larger tumour): 18 % of control and 41 % of control
- T/C (endpoint: median tumor weight (est.), dose: 54.0 mg/kg/injection, schedule: Q07DX002 (ip), vehicle: suspension in saline, higher = larger tumour): 58 % of control

SMILES: CC1(CO)C(O)CCC2(C)C1CCC1CC3CC12CCC3(O)CO (configuration not stated)
- T/C [1]: 120 % of control
- T/C [2]: 103 % of control
- T/C (endpoint: median tumor weight (est.), dose: 50.0 mg/kg/injection, schedule: Q07DX002 (ip), vehicle: saline with Tween-80, higher = larger tumour): 100 % of control
- T/C [3]: 124 % of control
- T/C (endpoint: median tumor weight (est.), dose: 200.0 mg/kg/injection, schedule: Q07DX002 (ip), vehicle: saline with Tween-80, higher = larger tumour): 77 % of control
- T/C (endpoint: median tumor weight (est.), dose: 400.0 mg/kg/injection, schedule: Q07DX002 (ip), vehicle: saline with Tween-80, higher = larger tumour): 89 % of control

SMILES: Cc1noc(N)c1N
- T/C (endpoint: median tumor weight (est.), dose: 25.0 mg/kg/injection, schedule: Q07DX002 (ip), vehicle: water, higher = larger tumour): 79 % of control
- T/C (endpoint: median tumor weight (est.), dose: 50.0 mg/kg/injection, schedule: Q07DX002 (ip), vehicle: water, higher = larger tumour): 82 % of control
- T/C (endpoint: median tumor weight (est.), dose: 100.0 mg/kg/injection, schedule: Q07DX002 (ip), vehicle: water, higher = larger tumour): 78 % of control
- T/C (endpoint: median tumor weight (est.), dose: 200.0 mg/kg/injection, schedule: Q07DX002 (ip), vehicle: water, higher = larger tumour): 101 % of control
- T/C (endpoint: median tumor weight (est.), dose: 400.0 mg/kg/injection, schedule: Q07DX002 (ip), vehicle: water, higher = larger tumour): 74 % of control
- T/C (endpoint: median tumor weight (est.), dose: 800.0 mg/kg/injection, schedule: Q07DX002 (ip), vehicle: water, higher = larger tumour): 95 % of control

SMILES: N=C(N)Sc1ccccn1
- T/C (endpoint: median tumor weight (est.), dose: 100.0 mg/kg/injection, schedule: Q07DX003 (ip), vehicle: saline, higher = larger tumour): 94 % of control
- T/C (endpoint: median tumor weight (est.), dose: 200.0 mg/kg/injection, schedule: Q07DX003 (ip), vehicle: saline, higher = larger tumour): 81 % of control
- T/C (endpoint: median tumor weight (est.), dose: 400.0 mg/kg/injection, schedule: Q07DX003 (ip), vehicle: saline, higher = larger tumour): 88 % of control and 108 % of control

SMILES: Nc1ccc(Cn2ccc3c4c(N)nc(N)nc4ccc32)cc1
- T/C (endpoint: median tumor weight (est.), dose: 1.25 mg/kg/injection, schedule: Q07DX002 (ip), vehicle: saline with Tween-80, higher = larger tumour): 90 % of control
- T/C (endpoint: median tumor weight (est.), dose: 2.5 mg/kg/injection, schedule: Q07DX002 (ip), vehicle: saline with Tween-80, higher = larger tumour): 93 % of control and 106 % of control
- T/C (endpoint: median tumor weight (est.), dose: 40.0 mg/kg/injection, schedule: Q07DX002 (ip), vehicle: saline with Tween-80, higher = larger tumour): 59 % of control
